Read-outs that look alike come from different tables or passages of the source. Values belong to the compound of their own block, whether it stands above or below them.
Experiments:
[1] = biological target: T1, 5-HT1B receptor (Macaca mulatta, UniProt F6SFA9); assay: Example 1 PET monkey study: change in [11C]AZ10419369-5-HT1B receptor binding potential (BPND); assay type: in vivo, rhesus monkeys; settings: rhesus monkey, iv, mean±standard error, n=3, read-out: ΔBPND (% of baseline); for change in vivo at 0.3 mg/kg: Vortioxetine 0.3 mg/kg IV; for change in vivo at 1 mg/kg: Vortioxetine 1.0 mg/kg IV
T1 construct: assess changes in the endogenous serotonin concentration in living rhesus monkeys; from tissue; host or cells: brain of living rhesus monkeys (PET)
T1 sequence (F6SFA9 1-390): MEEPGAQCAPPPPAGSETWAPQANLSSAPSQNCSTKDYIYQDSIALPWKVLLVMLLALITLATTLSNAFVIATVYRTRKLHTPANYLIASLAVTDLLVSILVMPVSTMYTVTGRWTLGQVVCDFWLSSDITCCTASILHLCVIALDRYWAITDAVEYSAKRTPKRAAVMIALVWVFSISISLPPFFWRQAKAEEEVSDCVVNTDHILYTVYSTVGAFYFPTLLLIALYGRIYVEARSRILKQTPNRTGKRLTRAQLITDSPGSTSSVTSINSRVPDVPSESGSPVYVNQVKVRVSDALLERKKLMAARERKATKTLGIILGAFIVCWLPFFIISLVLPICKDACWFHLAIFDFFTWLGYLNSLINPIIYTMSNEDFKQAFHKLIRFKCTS
From the text: (§1) Positron Emission Tomography (PET) was used to assess changes in the endogenous serotonin concentration in living rhesus monkeys. The objective of the present study was two-fold. […] The chemical name for [^11C]MADAM is [^11C] N,N-dimethyl-2-(2-amino-4-methylphenylthio)benzylamine.
(§2) FIG. 1 illustrates the study design used for assessment of serotonin releasing capacities. A similar study design was applied for assessment of SERT occupancy.

[2] = biological target: T2, serotonin transporter (SERT) (Macaca mulatta, UniProt Q9MYX0); assay: Example 1 PET monkey study: SERT occupancy with [11C]MADAM; assay type: in vivo, rhesus monkeys; settings: rhesus monkey, iv, monkey brain
T2 construct: serotonin transporter occupancy in the monkey brain using the SERT radio-ligand; from tissue; host or cells: brain of living rhesus monkeys (PET)
T2 sequence (Q9MYX0 whole entry): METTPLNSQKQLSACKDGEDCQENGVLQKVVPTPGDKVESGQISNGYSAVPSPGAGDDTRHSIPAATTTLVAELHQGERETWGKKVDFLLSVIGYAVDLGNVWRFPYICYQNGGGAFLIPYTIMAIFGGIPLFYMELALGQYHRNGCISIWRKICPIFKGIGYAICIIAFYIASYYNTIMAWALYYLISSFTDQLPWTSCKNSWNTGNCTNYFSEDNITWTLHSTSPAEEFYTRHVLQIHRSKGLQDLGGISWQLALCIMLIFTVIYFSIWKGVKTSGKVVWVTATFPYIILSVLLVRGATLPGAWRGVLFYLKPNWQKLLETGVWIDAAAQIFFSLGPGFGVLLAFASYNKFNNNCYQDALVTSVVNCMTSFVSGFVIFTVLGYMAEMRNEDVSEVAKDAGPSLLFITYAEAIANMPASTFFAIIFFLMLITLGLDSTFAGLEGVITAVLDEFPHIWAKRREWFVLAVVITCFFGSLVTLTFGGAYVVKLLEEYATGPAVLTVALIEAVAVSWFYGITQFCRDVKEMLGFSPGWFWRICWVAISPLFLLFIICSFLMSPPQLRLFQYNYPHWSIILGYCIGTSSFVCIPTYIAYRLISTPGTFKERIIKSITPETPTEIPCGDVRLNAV
From the text: as §1, §2

[3] = cited from earlier work
[4] = system: depression; settings: FDA label of July 2014; oral treatment; cited from earlier work
[5] = system: patients with recurrent major depressive disorder; assay: Example 3 clinical trial: MADRS and CGI-I efficacy; assay type: in vivo, human; settings: for Change in 5-item MADRS score, Difference / Change in MADRS total score, Difference: VOR IV + VOR oral versus PBO IV + VOR oral;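 as to Change in 5-item MADRS score, Difference: apparent sadness Reported sadness Inner tension Pessimistic thoughts Suicidal thoughts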;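 as to Change in 5-item MADRS score, Mean: apparent sadness Reported sadness Inner tension Pessimistic thoughts Suicidal thoughts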
Experimental: In particular, a total of 55 patients (27 and 28 in each treatment group) were recruited to an interventional, prospective, multi-national, multi-site, randomised, double-blind, parallel-group, fixed-dose study.
The study consisted of a Screening Period—2 to 14-day period from screening to randomisation, a Treatment Period—15-day double-blind treatment period with one initial IV administration of 17 mg vortioxetine or saline and daily oral treatment with vortioxetine 10 mg and a Safety Follow-up Period—4-week period after end of treatment or after withdrawal from the study.
At the Baseline Visit, patients were equally randomised (1:1) to either of the following two dose regimens: vortioxetine 17 mg single dose (IV) and vortioxetine 10 mg/day (tablet) or placebo single dose (IV) and vortioxetine 10 mg/day (tablet).
(§3) Patients randomised to the vortioxetine IV dose regimen, received a single double-blind IV dose of 17 mg vortioxetine, infused over 2 hours, on Day 0 (baseline). Patients randomised to the vortioxetine oral dose regimen received a single double-blind IV dose of placebo (saline), infused over 2 hours, on Day 0. From Day 0 to Day 14, all patients in both treatment groups also received open labelled 10 mg/day vortioxetine by oral administration (tablets).
Following the IV infusion, patients stayed hospitalised for approximately 24 hours for close observation. After the hospitalisation period, patients continued the study on an outpatient basis.
Efficacy and safety data were collected at Days 0, 1, 3, 7, and 14, including MADRS and clinical global impression […].
The full MADRS scale may not be a suitable tool for gauging the early onset of anti-depressant effect of a drug because some of the ten items addressed in the MADRS test may require longer assessment time to validly assess a given symptom. For example, the MADRS item “Concentration Difficulties” requires that the patient has been exposed to a situation during the treatment where a change in the ability to concentrate could be identified in order for that item to truly reflect a treatment effect.

[6] = Example 3 clinical trial: vortioxetine plasma levels and simulated AUC0-24; assay type: in vivo; settings: human; for concentration at 2 h: Day 0, 2 hours; for concentration at 8 h: Day 0, 8 hours; for concentration at 24 h: Day 0, 24 hours; for concentration at 14 day: Day 14; for AUC(0-t): popPK simulation based on observed data
Experimental: as §3
The popPK model from example 2 was used to simulate vortioxetine plasma levels based on the observed data from Table 5. […] That is, the steady-state plasma level of vortioxetine achieved from the combined IV and oral vortioxetine administration the within 24 hours from the first dosing is essentially the same as the steady-state vortioxetine plasma level achieved at day 14 following the administration of once-daily oral vortioxetine alone in that period.

[7] = VOR IV (17 mg day 0) + VOR oral (10 mg/day), Day 1, N 27
[8] = VOR IV (17 mg day 0) + VOR oral (10 mg/day), Day 3, N 27
[9] = VOR IV (17 mg day 0) + VOR oral (10 mg/day), Day 7, N 27
[10] = other: intravenous infusion plus oral tablets, VOR IV + VOR oral
[11] = PBO IV + VOR oral (10 mg/day), Day 1, N 28
[12] = PBO IV + VOR oral (10 mg/day), Day 3, N 28
[13] = PBO IV + VOR oral (10 mg/day), Day 7, N 28

- change in vivo at 0.3 mg/kg ([1]; Amygdala): -12.4 ± 10.5%
- change in vivo at 1 mg/kg ([1]; Amygdala): -39.5 ± 11.5%
- change in vivo at 0.3 mg/kg ([1]; Caudate nucleus): -23.2 ± 7.4%
- change in vivo at 1 mg/kg ([1]; Caudate nucleus): -47 ± 8%
- change in vivo at 0.3 mg/kg ([1]; Dorsal raphe nucleus): -28.3 ± 13.6%
- change in vivo at 1 mg/kg ([1]; Dorsal raphe nucleus): -55 ± 3.3%
- change in vivo at 0.3 mg/kg ([1]; Frontal gyrus): -8.2 ± 8.2%
- change in vivo at 1 mg/kg ([1]; Frontal gyrus): -32.8 ± 9.5%
- change in vivo at 0.3 mg/kg ([1]; Globus pallidus): -16.3 ± 5.1%
- change in vivo at 1 mg/kg ([1]; Globus pallidus): -41.2 ± 6.4%
- change in vivo at 0.3 mg/kg ([1]; Hippocampus): -9.4 ± 8.9%
- change in vivo at 1 mg/kg ([1]; Hippocampus): -27 ± 6.8%
- change in vivo at 0.3 mg/kg ([1]; Midbrain): -21.9 ± 3%
- change in vivo at 1 mg/kg ([1]; Midbrain): -49.4 ± 7.1%
- change in vivo at 0.3 mg/kg ([1]; Occipital gyrup): -24.3 ± 3.2%
- change in vivo at 1 mg/kg ([1]; Occipital gyrup): -54.1 ± 4.2%
- change in vivo at 0.3 mg/kg ([1]; Putamen): -15.6 ± 8.5%
- change in vivo at 1 mg/kg ([1]; Putamen): -40.8 ± 7.9%
- change in vivo at 0.3 mg/kg ([1]; Thalamus): -23.9 ± 5%
- change in vivo at 1 mg/kg ([1]; Thalamus): -42.5 ± 7%
- change in vivo at 0.3 mg/kg ([1]; Ventral striatum): -25.6 ± 5.4%
- change in vivo at 1 mg/kg ([1]; Ventral striatum): -47.7 ± 8.5%
- receptor occupancy at 0.3 mg/kg ([2]; vortioxetine 0.3 mg/kg intravenously): ~50%
- receptor occupancy at 1 mg/kg ([2]; vortioxetine 1.0 mg/kg intravenously): ~80%
Structure (SMILES): Cc1ccc(Sc2ccccc2N2CCNCC2)c(C)c1 [Vortioxetine, 1-[2-(2,4-dimethyl-phenylsulfanyl)-phenyl]piperazine]
- steady-state plasma level (median AUC0-24) ([3]; once daily oral 5 mg): 161 ng·h/mL
- steady-state plasma level (median AUC0-24) ([3]; once daily oral 10 mg): 323 ng·h/mL
- steady-state plasma level (median AUC0-24) ([3]; once daily oral 15 mg): 484 ng·h/mL
- steady-state plasma level (median AUC0-24) ([3]; once daily oral 20 mg): 645 ng·h/mL
- time until steady-state plasma concentration is achieved ([3]; once daily oral administration): approximately 8 days
- effect of vortioxetine is observed starting at week [4]: 2 week
- full antidepressant effect not seen until week [4]: ≥ 4 week

- concentration at 2 h [6, 10]: 11.1 ± 9.3 ng/mL
- concentration at 8 h [6, 10]: 11 ± 2.9 ng/mL
- concentration at 24 h [6, 10]: 8.6 ± 2.6 ng/mL
- concentration at 14 day [6, 10]: 10.8 ± 7 ng/mL
- AUC(0-t) ([6]; other: intravenous infusion plus oral tablets, day 0, VOR IV+VOR oral treated patients): 251 ± 46 ng·h/mL
Structure (SMILES): Cc1ccc(Sc2ccccc2N2CCNCC2)c(C)c1 [VOR IV + VOR oral]
- Change in 5-item MADRS score, Mean [5, 7]: −5.05
- Change in MADRS total score, Mean [5, 7]: −6.9
- Change in 5-item MADRS score, Mean [5, 8]: −6.96
- Change in MADRS total score, Mean [5, 8]: −12.1
- Change in 5-item MADRS score, Mean [5, 9]: −8.30
- Change in MADRS total score, Mean [5, 9]: −13.7
- Change in 5-item MADRS score, Mean ([5]; VOR IV (17 mg day 0) + VOR oral (10 mg/day), Day 14, N 27): -9.37
- Change in 5-item MADRS score, Difference ([5]; Day 1): −1.13
- Change in MADRS total score, Difference ([5]; Day 1): −1.4
- Change in 5-item MADRS score, Difference ([5]; Day 3): −0.96
- Change in MADRS total score, Difference ([5]; Day 3): −1.7
- Change in 5-item MADRS score, Difference ([5]; Day 7): −1.27
- Change in MADRS total score, Difference ([5]; Day 7): −0.3
- Change in 5-item MADRS score, Difference ([5]; Day 14): −0.16
- % responders (CGI-I ≤ 2) ([5]; VOR IV + VOR oral, Day 1): 18.5%
- % responders (≥50% reduction on MADRS Scale) ([5]; VOR IV + VOR oral, Day 1): 3.7%
- % responders (CGI-I ≤ 2) ([5]; VOR IV + VOR oral, Day 3): 50.0%
- % responders (≥50% reduction on MADRS Scale) ([5]; VOR IV + VOR oral, Day 3): 29.6%
- % responders (CGI-I ≤ 2) ([5]; VOR IV + VOR oral, Day 7): 53.8%
- % responders (≥50% reduction on MADRS Scale) ([5]; VOR IV + VOR oral, Day 7): 40.7%
- % responders (CGI-I ≤ 2) ([5]; VOR IV + VOR oral, Day 14): 73.1%
- % responders (≥50% reduction on MADRS Scale) ([5]; VOR IV + VOR oral, Day 14): 48.1%

- concentration at 2 h ([6]; 10 mg/day, PBO IV + VOR oral): 0.56 ± 1.18 ng/mL
- concentration at 8 h ([6]; 10 mg/day, PBO IV + VOR oral): 2.8 ± 1.8 ng/mL
- concentration at 24 h ([6]; 10 mg/day, PBO IV + VOR oral): 2.6 ± 1.3 ng/mL
- concentration at 14 day ([6]; 10 mg/day, PBO IV + VOR oral): 9.9 ± 5.3 ng/mL
- AUC(0-t) ([6]; oral, 10 mg/day, day 0, PBO IV+VOR oral treated patients): 47 ± 20 ng·h/mL
- AUC(0-t) ([6]; oral, 10 mg/day, day 14, PBO IV+VOR oral treated patients): 230 ± 85 ng·h/mL
Structure (SMILES): Cc1ccc(Sc2ccccc2N2CCNCC2)c(C)c1 [PBO IV + VOR oral]
- Change in 5-item MADRS score, Mean [5, 11]: −3.92
- Change in MADRS total score, Mean [5, 11]: −5.5
- Change in 5-item MADRS score, Mean [5, 12]: −6.00
- Change in MADRS total score, Mean [5, 12]: −10.3
- Change in 5-item MADRS score, Mean [5, 13]: −7.03
- Change in MADRS total score, Mean [5, 13]: −13.4
- Change in 5-item MADRS score, Mean ([5]; PBO IV + VOR oral (10 mg/day), Day 14, N 28): -9.21
- % responders (CGI-I ≤ 2) ([5]; PBO IV + VOR oral, Day 1): 7.1%
- % responders (≥50% reduction on MADRS Scale) ([5]; PBO IV + VOR oral, Day 1): 0%
- % responders (CGI-I ≤ 2) ([5]; PBO IV + VOR oral, Day 3): 39.3%
- % responders (≥50% reduction on MADRS Scale) ([5]; PBO IV + VOR oral, Day 3): 14.3%
- % responders (CGI-I ≤ 2) ([5]; PBO IV + VOR oral, Day 7): 42.9%
- % responders (≥50% reduction on MADRS Scale) ([5]; PBO IV + VOR oral, Day 7): 28.6%
- % responders (CGI-I ≤ 2) ([5]; PBO IV + VOR oral, Day 14): 67.9%
- % responders (≥50% reduction on MADRS Scale) ([5]; PBO IV + VOR oral, Day 14): 50.0%

— patent US10258617B2, “Dosing regimens for fast onset of antidepressant effect” (H. Lundbeck A/S, priority 2016, dated 2019)
